# Test results reported in patent US20220186286A1, “FLUORESCENT PROBE FOR DETECTING ACTIVATION OF SIALIDASE” (The University of Tokyo, priority 2019, published 2022).
# How the values were obtained:
# [1] = photochemical properties (absorption, emission, quantum yield, pKa, pKcycl); format: physicochemical; settings: for pKcycl: spiro ring formation
# Experimental: UV-vis spectra were obtained with a spectrophotometer, Shimadzu UV-2450.
# Fluorescence spectra were obtained with Hitachi F-7000. The absolute fluorescence quantum efficiency was measured using an absolute PL quantum yield measuring apparatus, Quantuarus-QY (Hamamatsu Photonics K. K.). The probe was dissolved in dimethyl sulfoxide (DMSO, grade for fluorometry, DOJINDO LABORATORIES) to obtain a stock solution.
# (§1) The optical property of the probe was acquired in a 0.2 M sodium phosphate buffer, a 100 mM NaOAc, 2 mM CaCl2, pH 6.5 buffer, or a 50 mM NaOAc, 2 mM CaCl2, 100 μg/mL BSA, pH 7.4 buffer. For an in vitro enzymatic reaction, the probe DMSO stock solution was diluted with a 100 mM NaOAc, 2 mM CaCl2, pH 7.4 buffer so that the final concentration was 1 μM. First, the fluorescence of the solution before adding a sialidase was measured every second (excitation wavelength: 490 nm, emission wavelength: 520 nm). Then, a neuraminidase from Arthrobacter ureafaciens (0.01 U) was used for this assay.
# [2] = system: neuraminidase (from Arthrobacter ureafaciens); assay: dynamic (kinetic) parameters of the probes as neuraminidase substrates; format: biochemical; settings: for Km / Vmax / kcat: 50 mM NaOAc, 2 mM CaCl2, 100 μg/mL BSA buffer (pH 6.5), 60 minutes; for kcat/Km relative to that of 4-MUNANA: fold larger than 4-MUNANA
# Experimental: The probe was dissolved in 200 μL (total volume) of 50 mM NaOAc, 2 mM CaCl2, 100 μg/mL BSA buffer (pH 6.5) at various concentrations. A neuraminidase (from Arthrobacter ureafaciens, […]) was added, and the increase in fluorescence for 60 minutes was evaluated. Concerning the dynamic parameter Vmax and Km, the corrected data were calculated using the following formula.
# V0 is the steady state speed of the probe substrate rotation by the neuraminidase, Vmax is the maximum speed (mM/min), X is the probe concentration in the reaction mixture (mM), and Km is the Michaelis constant (mM) at which the reaction speed is half of Vmax. Formula 1 was fitted to the data using KaleidaGraph 4.5.2 software (Synergy Software).
# The dynamic parameters of HMRef-Neu5Ac and HMRef-S-Neu5Ac were determined in accordance with the method previously described by Govorkova et al., and compared to that of a commercial sialidase substrate, 4-MUNANA.
# [3] = system: neuraminidase from Arthrobacter ureafaciens; assay: in vitro enzymatic reaction with sialidase, change in fluorescence intensity over time; format: biochemical; settings: for increase in the fluorescence in reaction with the sialidase: 1 μM probe, 0.01 U enzyme, 100 mM NaOAc 2 mM CaCl2 buffer pH 7.4, 37° C.; for change in the fluorescence in the absence of enzyme: identical reaction without enzyme, pH 7.4, 37° C.
# Experimental: as §1
# The fluorescence intensity of HMRef-Neu5Ac obtained in Synthesis Example 1 was changed through an enzymatic reaction with a neuraminidase (Arthrobacter ureafaciens), and the change in the fluorescence intensity of HMRef-Neu5Ac over time was examined. HMRef-Neu5Ac was dissolved in a 100 mM NaOAc 2 mM CaCl2 buffer (pH 7.4) to prepare a 1 μM solution, and 0.01 U of the enzyme was added 60 seconds after the start of measurement. At the time of measurement, the temperature was 37° C., and the concentration of an enzyme inhibitor (DANA) was 100 μM.
# In the same manner as in the evaluation of HMRef-Neu5Ac, the reaction with a sialidase and the absorption spectrum at each pH were acquired for HMRef-S-Neu5Ac (FIGS. 3a and 3b).
# [4] = stability of the probe at various pH values (fluorescence intensity and absorption spectra over time); format: physicochemical; settings: for stability: change in fluorescence intensity over time at various pH values: 0.2 M sodium phosphate buffer, 2 hours, ex/em 485 nm/535 nm; for change of absorption spectra 1.5 hours after dissolution: 0.2 M sodium phosphate buffers of various pH, immediately after vs 1.5 hours after dissolution
# Experimental: HMRef-Neu5Ac was dissolved in 0.2 M sodium phosphate buffers having various pH values, and the absorption spectra were measured immediately after and 1.5 hours after the dissolution.
# The stability of HMRef-Neu5Ac and that of HMRef-S-Neu5Ac were directly compared by recording the changes in fluorescence intensity over time at a pH within a range. The initial fluorescence intensity values of both the probes depend on the pH value according to the pKcycl values of the probes. That is, the lower the pH is, the larger the initial fluorescence intensity value is.
# The measurement was performed in 0.2 M sodium phosphate buffer at 37° C. and measurements were taken every 5 minutes. In each measurement, excitation/emission wavelengths of 485 nm/535 nm were used.
# [5] = pH 2, 0.2M sodium phosphate buffer
# [6] = pH 7.4, 0.2M sodium phosphate buffer
pKa ([1]; 0.2 M sodium phosphate buffer),"Absorption max. [1, 6]","Emission max. [1, 6]",Compound,"Absorption max. [1, 5]","Emission max. [1, 5]","fluorescence quantum yield (absolute fluorescence quantum efficiency) [1, 5]","fluorescence quantum yield (absolute fluorescence quantum efficiency) [1, 6]",pKcycl [1],Km [2],Vmax [2],kcat [2],increase in the fluorescence in reaction with the sialidase [3],change in the fluorescence in the absence of enzyme [3],kcat/Km relative to that of 4-MUNANA [2],stability: change in fluorescence intensity over time at various pH values ([4]; 37° C.),change of absorption spectra 1.5 hours after dissolution [4],"time to complete hydrolysis ([4]; pH 2 and pH 4, 0.2 M sodium phosphate buffer, 37° C.)"
4.4,498 nm,518 nm,"O=c1ccc2c(-c3ccccc3CO)c3ccc(NCC(F)(F)F)cc3oc-2c1 [HMRef, reference compound]",479 nm,515 nm,0.716,0.777,10.2,–,–,–,–,–,–,–,–,–
–,–,–,"CC(=O)N[C@@H]1[C@@H](O)C[C@](Oc2ccc3c(C)cc(=O)oc3c2)(C(=O)O)O[C@H]1C(O)[C@H](O)CO (stereo partly drawn) [4-MUNANA, 2′-(4-methylumbelliferyl)-α-D-N-acetylneuraminic acid, reference compound]",–,–,–,–,–,37 µM,1.73 nM/s,2.6 s⁻¹,–,–,–,–,–,–
–,–,–,CC(=O)N[C@H]1[C@H]([C@H](O)[C@H](O)CO)O[C@@](Oc2ccc3c(c2)Oc2cc(NCC(F)(F)F)ccc2C32OCc3ccccc32)(C(=O)O)C[C@@H]1O (some centres unmarked) [HMRef-Neu5Ac],484 nm,522 nm,0.650,0.323,4.8,19 µM,13.5 nM/s,20.6 s⁻¹,up to 40 fold,3 fold,~16 fold,clear instability at all the pH values,greatly changed in shape,about 40 minutes
–,–,–,CC(=O)N[C@H]1[C@H]([C@H](O)[C@H](O)CO)O[C@@](Oc2ccc(COc3ccc4c(c3)Oc3cc(NCC(F)(F)F)ccc3C43OCc4ccccc43)cc2)(C(=O)O)C[C@@H]1O (some centres unmarked) [HMRef-S-Neu5Ac],484 nm,522 nm,0.537,0.271,5.3,11 µM,7.03 nM/s,10.7 s⁻¹,130 fold,remained at a constant low level,~13 fold,changed little over the time,changed little,–
